Values after ≈ are worked out from the molar mass of the structure shown.
Columns and labels:
[1] = free drug; cited from earlier work
[2] = cited from earlier work; for solubility in water: free drug, 25° C.
plasma proteins = settings: in vivo; cited from earlier work
[3] = tested on: 3D7 cells synchronized at ring stage; test: In vitro antimalarial growth inhibition assay (GIA), flow cytometry after 48 h; assay type: cell-based, P. falciparum; settings: Plasmodium falciparum, 3D7, 48 h
Description: Since P. falciparum I usually asynchronous during in vitro culture, the generation of highly synchronized parasite cultures is requested to investigate their pharmacological properties in vitro. […] Samples of the PACs were incubated with the cells for 48 h and then parasitemia was evaluated by flow cytometry after labelling parasite nuclei with fluorescence (growth inhibition assay, GIA).
PACs loaded with atovaquone were analysed with 3D7 cells synchronized at ring stage. Samples were incubated with the cells for 48 h and then parasitemia was evaluated by flow cytometry after labelling parasite nuclei with fluorescence (growth inhibition assay, GIA). The pharmacological activity of atovaquone is expressed in terms of drug concentration needed to inhibit 50% of the cell population (IC50) (FIG. 9).

[4] = Evolution with time of optical density (Do at 405 nm) of curcumin solutions in PBS pH 7.4 at 37° C.; assay type: physicochemical; settings: PBS pH 7.4, 37° C.
[5] = Dynamic Light Scattering (DLS) mean size of PACs; assay type: physicochemical; settings: ibuprofen formulations by direct dissolution, 2 h after preparation

## O=C1C(O)=C([C@H]2CC[C@H](c3ccc(Cl)cc3)CC2)C(=O)c2ccccc21 [Atovaquone]
[1]
  LogP: 5.8
[2]
  solubility class in water (free drug): practically insoluble
Plasma proteins
  bound to plasma proteins: 99.9%
[3]
  IC50: 0.00084 µM

## COc1cc(/C=C/C(=O)CC(=O)/C=C/c2ccc(O)c(OC)c2)ccc1O [Curcumin, curcumin]
[2]
  solubility class in water (free drug): practically insoluble
  solubility in water: < 1 µg/mL
Curcumin 5 mg/ml, direct dissolution in aqueous phase (Example 3)
  macroscopic aspect: slightly yellow and less turbid suspension
[4]; With BSA (1%), curcumin 2 μg/mL, 1 h
  optical density (Do at 405 nm): 0.275
[4]; With BSA (1%), curcumin 2 μg/mL, 24 h
  optical density (Do at 405 nm): 0.214
[4]; With BSA (1%), curcumin 2 μg/mL, 96 h
  optical density (Do at 405 nm): 0.437
[4]; With BSA (1%), curcumin 10 μg/mL, 1 h
  optical density (Do at 405 nm): 1.102
[4]; With BSA (1%), curcumin 10 μg/mL, 24 h
  optical density (Do at 405 nm): 1.007
[4]; With BSA (1%), curcumin 10 μg/mL, 96 h
  optical density (Do at 405 nm): 0.701
[4]; With BSA (1%), curcumin 20 μg/mL, 1 h
  optical density (Do at 405 nm): 1.875
[4]; With BSA (1%), curcumin 20 μg/mL, 24 h
  optical density (Do at 405 nm): 1.508
[4]; With BSA (1%), curcumin 20 μg/mL, 96 h
  optical density (Do at 405 nm): 0.899
[4]; Without BSA, curcumin 2 μg/mL, 1 h
  optical density (Do at 405 nm): 0.068
[4]; Without BSA, curcumin 2 μg/mL, 24 h
  optical density (Do at 405 nm): 0.019
[4]; Without BSA, curcumin 2 μg/mL, 96 h
  optical density (Do at 405 nm): 0.001
[4]; Without BSA, curcumin 10 μg/mL, 1 h
  optical density (Do at 405 nm): 0.321
[4]; Without BSA, curcumin 10 μg/mL, 24 h
  optical density (Do at 405 nm): 0.097
[4]; Without BSA, curcumin 10 μg/mL, 96 h
  optical density (Do at 405 nm): 0.064
[4]; Without BSA, curcumin 20 μg/mL, 1 h
  optical density (Do at 405 nm): 0.717
[4]; Without BSA, curcumin 20 μg/mL, 24 h
  optical density (Do at 405 nm): 0.253
[4]; Without BSA, curcumin 20 μg/mL, 96 h
  optical density (Do at 405 nm): 0.113
[3]
  IC50: 14.2 µM

## CC(C)Cc1ccc(C(C)C(=O)O)cc1 (stereo not shown) [Ibuprofen]
[5]
  Cumulant DLS diameter: >1,000,000 nm
[2]
  solubility in water: 0.21 µg/mL (≈ 1.02 µM)
Ibuprofen 5 mg/mL, polymer 45 mg/mL, direct dissolution in water, room temperature
  Macroscopic aspect 2 h after dissolution: Macroscopic crystals

## CCCSc1nc(N[C@@H]2C[C@H]2c2ccc(F)c(F)c2)c2nnn([C@@H]3C[C@H](OCCO)[C@@H](O)[C@H]3O)c2n1 [Ticagrelor]
[1]
  LogP: 2.28

## Ivermectin
[1]
  LogP: 5.83

— patent US20240374740A1, “POLY AMPHIPHILIC COMPLEXES FOR THE DELIVERY OF A HYDROPHOBIC ACTIVE AGENT, COMPOSITIONS AND METHODS” (Université de Liège, priority 2021, published 2024)
